Reference: patent US20210395327A1, “Growth Hormone-Releasing Hormone Antagonists and Uses Thereof” (United States Government As Represented By The Department …, priority 2019, published 2021)
Entries after “also recorded” stand apart in the source; their conditions may differ. Where two headings read alike, the source gives them in different places. One block for each compound: values may come before it. Non-standard residues stand in square brackets, D forms with d. Residues, ends and D or L forms follow the SMILES beside them. *: point of attachment. Phenylacetyl(2,3,4,5,6-F5) = O=C(Cc1c(F)c(F)c(F)c(F)c1F)*; Phe(F5) = N[C@@H](Cc1c(F)c(F)c(F)c(F)c1F)C(=O)O; Phe(4-Cl) = N[C@@H](Cc1ccc(Cl)cc1)C(=O)O; hArg = N=C(N)NCCCC[C@H](N)C(=O)O; 12Ado = NCCCCCCCCCCCC(=O)O; Nle = CCCC[C@H](N)C(=O)O; Orn = NCCC[C@H](N)C(=O)O; Abu = CC[C@H](N)C(=O)O; PhAc = O=C(Cc1ccccc1)*; Aoc = NCCCCCCCC(=O)O

Tests used:
[1] = system: KATOIII stomach cancer cells; test: In vitro cell viability, KATOIII; format: cell-based, human; conditions: antagonist 5 μM for 72 h, cell proliferation assay; MIA602 = 1
Method: (§1) The inhibitory effects of the various synthesized GHRH antagonists were tested in cell proliferation assays in various human cancer cell lines including stomach cancer (KATOIII, N87), colon cancer (HT-29), urothelial cancer (J82, RT4), pancreatic cancer (PANC-1, CFPAC-1), prostatic cancer (PC3), breast cancer (MX-1, HCC1806), ovarian cancer (SK-OV-3, OVCAR-3) and lung cancer (HCC827, H460).
(§2) Cell culture. Human cancer cell lines including pancreatic (PANC-1 and CFPAC-1), lung (HCC827 and H460), stomach (NCI-N87 and KATOIII), urothelial (J82, RT4), prostatic (PC3), breast (MX-1 and HCC 1806), colorectal (HT-29), and ovarian (SK-OV-3 and OVCAR-3) were obtained from the American Type Culture Collection (ATCC) and cultured at 37° C. in a humidified 95% air/5% CO2 atmosphere in the medium recommended by ATCC.
(§3) In vitro cell viability. Cell viability was analyzed as follows: cancer cells including pancreatic (PANC-1 and CFPAC-1), lung (HCC827 and H460), stomach (NCI-N87 and KATOIII), urothelial (J82, RT4), prostatic (PC3) and breast (MX-1 and HCC 1806), colorectal (HT-29) and ovarian (SK-OV-3 and OVCAR-3) were grown on 96 well plates to ˜60% confluence, the cells were starved for 24 h in culture medium containing 0.5% FBS. Cells were then treated with GHRH antagonists MIA602 AVR compounds at concentrations of 1, 2.5 or 5 μM, or vehicle (0.1% DMSO) in quintuplicates for 72 hours. The medium was replaced every 48 hours. Cell viability was measured using CellTiter 96 aqueous one solution kit (Promega). Inhibitory effects of tested AVR compounds in comparison to that of MIA602 are presented as inhibitory potency.
(§4) Inhibitory effects of selected AVR compounds in comparison to that of MIA602 are presented as inhibitory potency (e.g., percentage of inhibition). […] The cell lines tested including lung cancer HCC827 (FIG. 2A), pancreatic cancer CFPAC-1 (FIG. 2B), stomach cancer N87 (FIG. 2C), colon cancer HT-29 (FIG. 2D), breast cancers MX-1 and HCC1806 (FIGS. 2 E, F). Based on the results of cell proliferation assay after cancer cells were treated with antagonist at concentration of 5 μM for 72H, the relative inhibitory potency of AVR antagonists in comparison to MIA-602 is summarized in Table 3 A and B. Over 60 AVR compounds were tested in 12 cancer cell lines.

[2] = target: T1, membrane GHRH-receptors on human anterior pituitary cells (Homo sapiens, UniProt Q02643); test: Receptor binding, displacement of 125I-[His1,Nle27]-hGH-RH(1-32)NH2 on human pituitary membranes
T1 construct: Human pituitary was purchased from the National Hormone and Peptide Program; tissue National Hormone and Peptide Program; host or cells: human pituitary (membrane fractions)
T1 sequence (Q02643 23-423): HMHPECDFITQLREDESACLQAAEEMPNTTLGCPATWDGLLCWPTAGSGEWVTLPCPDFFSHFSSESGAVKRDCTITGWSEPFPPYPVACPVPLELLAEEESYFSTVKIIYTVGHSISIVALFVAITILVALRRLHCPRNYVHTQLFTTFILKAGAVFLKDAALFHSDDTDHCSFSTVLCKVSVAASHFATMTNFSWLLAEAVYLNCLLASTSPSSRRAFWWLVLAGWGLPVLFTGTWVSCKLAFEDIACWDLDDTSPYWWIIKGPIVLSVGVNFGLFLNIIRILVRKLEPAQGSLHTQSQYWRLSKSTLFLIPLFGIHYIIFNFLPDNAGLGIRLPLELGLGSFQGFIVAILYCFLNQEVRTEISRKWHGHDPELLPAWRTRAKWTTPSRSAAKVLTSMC
Method: Receptor binding affinities in vitro. Preparation of human pituitary membrane fractions and receptor binding of analogs of GH-RH were performed (Halmos G, Rekasi Z, Szoke B, Schally A V. (1993) Receptor 3:87-97). Human pituitary was purchased from the National Hormone and Peptide Program. […] Relative affinities compared to hGH-RH(1-29)NH2 were calculated as the ratio of IC50 (dose causing 50% inhibition of specific binding to receptors) of the tested peptides to the IC50 of hGH-RH(1-29)NH2. The values were calculated from technical duplicate tubes.
Nineteen new AVR analogs of GHRH were tested in the receptor binding assay. Table 6 presents the IC50 values of GHRH antagonists to membrane GHRH-receptors binding on human anterior pituitary cells.

[3] = system: HCC827 lung cancer cells; test: In vitro cell viability, HCC827; format: cell-based, human; conditions: antagonist 5 μM for 72 h, cell proliferation assay; MIA602 = 1
Method: as §1, §2, §3, §4
(§5) Based on the results of cell proliferation assay after cancer cells were treated with antagonist at concentration of 5 µM for 72H, * at concentration of 2 µM for 72 H.

[4] = system: CFPAC-1 pancreatic cancer cells; test: In vitro cell viability, CFPAC-1; format: cell-based, human; conditions: antagonist 5 μM for 72 h, cell proliferation assay; MIA602 = 1
Method: as §1, §2, §3, §4, §5

Structure (SMILES): CCCC[C@H](NC(=O)[C@@H](NC(=O)[C@H](CC(=O)O)NC(=O)[C@H](CCC(N)=O)NC(=O)[C@H](CC(C)C)NC(=O)[C@H](CC(C)C)NC(=O)[C@H](CCCCN)NC(=O)[C@H](CCCNC(=N)N)NC(=O)[C@H](C)NC(=O)[C@H](CO)NC(=O)[C@H](CC(C)C)NC(=O)[C@H](CCC(N)=O)NC(=O)[C@H](CC)NC(=O)[C@H](CC(C)C)NC(=O)[C@@H](NC(=O)[C@H](CCCCN)NC(=O)[C@H](CCCNC(=N)N)NC(=O)[C@H](Cc1ccc(OC)cc1)NC(=O)[C@H](CCCCNC(=N)N)NC(=O)[C@H](CC(N)=O)NC(=O)[C@@H](NC(=O)[C@H](Cc1ccc(Cl)cc1)NC(=O)[C@@H](NC(=O)[C@H](C)NC(=O)[C@H](CC(=O)O)NC(=O)[C@@H](CCCNC(=N)N)NC(=O)[C@H](Cc1ccc(O)cc1)NC(=O)CCCCCCCCCCCNC(=O)Cc1ccccc1)[C@@H](C)CC)[C@@H](C)O)C(C)C)[C@@H](C)CC)C(=O)N[C@H](CCCNC(=N)N)C(=O)N[C@@H](CCCCNC(=N)N)C(=O)NCCCCCCCC(=O)NC [AVR-321, PhAC-Ada-Tyr-DArg-Asp-Ala-Ile-Cpa-Thr-Asn-Har-Tyr(Me)-Arg-Lys-Val-Leu-Abu-Gln-Leu-Ser-Ala-Arg-Lys-Leu-Leu-Gln-Asp-Ile-Nle-DArg-Har-Aoc-NHCH3] ({PhAc-12Ado}-Y[dR]DAI[Phe(4-Cl)]TN[hArg]Y(Me)RKVL[Abu]QLSARKLLQDI[Nle][dR][hArg][Aoc]-NHMe)
relative inhibitory potency in comparison to MIA-602, Stomach KATOIII [1]: 1.414 | IC50 [2]: 0.23 nM

IC50 ([2]; membrane receptors on human anterior pituitary cells, mean of two to three determinations, read-out: IC50): 0.17 nM
Structure (SMILES): CCCC[C@H](NC(=O)[C@@H](NC(=O)[C@H](CC(=O)O)NC(=O)[C@H](CCC(N)=O)NC(=O)[C@H](CC(C)C)NC(=O)[C@H](CC(C)C)NC(=O)[C@H](CCCN)NC(=O)[C@H](Cc1c[nH]cn1)NC(=O)[C@H](C)NC(=O)[C@H](CO)NC(=O)[C@H](CC(C)C)NC(=O)[C@H](CCC(N)=O)NC(=O)[C@H](CC)NC(=O)[C@H](CC(C)C)NC(=O)[C@@H](NC(=O)[C@H](CCCN)NC(=O)[C@H](Cc1c[nH]cn1)NC(=O)[C@H](Cc1c(F)c(F)c(F)c(F)c1F)NC(=O)[C@H](CCCCNC(=N)N)NC(=O)[C@H](C)NC(=O)[C@@H](NC(=O)[C@H](Cc1ccc(Cl)cc1)NC(=O)[C@@H](NC(=O)[C@H](C)NC(=O)[C@H](CC(=O)O)NC(=O)[C@@H](CCCNC(=N)N)NC(=O)[C@H](Cc1ccc(O)cc1)NC(=O)CCCCCCCCCCCNC(=O)Cc1c(F)c(F)c(F)c(F)c1F)[C@@H](C)CC)[C@@H](C)O)C(C)C)[C@@H](C)CC)C(=O)N[C@H](CCCNC(=N)N)C(=O)N[C@@H](CCCCNC(=N)N)C(=O)NCCCCCCCCCCCC(N)=O [AVR-552, 5FPhAC-Ada-Tyr-DArg-Asp-Ala-Ile-Cpa-Thr-Ala-Har-5FPhe-His-Orn-Val-Leu-Abu-Gln-Leu-Ser-Ala-His-Orn-Leu-Leu-Gln-Asp-Ile-Nle-DArg-Har-Ada-NH2] ({Phenylacetyl(2,3,4,5,6-F5)-12Ado}-Y[dR]DAI[Phe(4-Cl)]TA[hArg][Phe(F5)]H[Orn]VL[Abu]QLSAH[Orn]LLQDI[Nle][dR][hArg][12Ado]-NH2)
relative inhibitory potency in comparison to MIA-602, Lung IICC827 [3]: 4.376 | relative inhibitory potency in comparison to MIA-602, Pancreatic CFPAC-1 [4]: 1.57 | binding affinity to membrane receptors of human pituitary cells (in words) ([2]; competitive binding, human pituitary membrane fractions): higher binding affinity in comparison to MIA-602; also recorded: highest binding affinities

Structure (SMILES): CCCC[C@H](NC(=O)[C@@H](NC(=O)[C@H](CC(=O)O)NC(=O)[C@H](CCC(N)=O)NC(=O)[C@H](CC(C)C)NC(=O)[C@H](CC(C)C)NC(=O)[C@H](CCCN)NC(=O)[C@H](Cc1c[nH]cn1)NC(=O)[C@H](C)NC(=O)[C@H](CO)NC(=O)[C@H](CC(C)C)NC(=O)[C@H](CCC(N)=O)NC(=O)[C@H](CC)NC(=O)[C@H](CC(C)C)NC(=O)[C@@H](NC(=O)[C@H](CCCN)NC(=O)[C@H](Cc1c[nH]cn1)NC(=O)[C@H](Cc1c(F)c(F)c(F)c(F)c1F)NC(=O)[C@H](CCCCNC(=N)N)NC(=O)[C@H](C)NC(=O)[C@@H](NC(=O)[C@H](Cc1ccc(Cl)cc1)NC(=O)[C@@H](NC(=O)[C@H](C)NC(=O)[C@H](CC(=O)O)NC(=O)[C@@H](CCCNC(=N)N)NC(=O)[C@H](Cc1ccc(O)cc1)NC(=O)CCCCCCCCCCCNC(=O)Cc1ccccc1)[C@@H](C)CC)[C@@H](C)O)C(C)C)[C@@H](C)CC)C(=O)N[C@H](CCCNC(=N)N)C(=O)N[C@@H](CCCCNC(=N)N)C(N)=O [MIA-690, reference compound] ({PhAc-12Ado}-Y[dR]DAI[Phe(4-Cl)]TA[hArg][Phe(F5)]H[Orn]VL[Abu]QLSAH[Orn]LLQDI[Nle][dR][hArg]-NH2)
IC50 [2]: 0.53 nM

Structure (SMILES): CCCC[C@H](NC(=O)[C@@H](NC(=O)[C@H](CC(=O)O)NC(=O)[C@H](CCC(N)=O)NC(=O)[C@H](CC(C)C)NC(=O)[C@H](CC(C)C)NC(=O)[C@H](CCCN)NC(=O)[C@H](Cc1c[nH]cn1)NC(=O)[C@H](C)NC(=O)[C@H](CO)NC(=O)[C@H](CC(C)C)NC(=O)[C@H](CCC(N)=O)NC(=O)[C@H](CC)NC(=O)[C@H](CC(C)C)NC(=O)[C@@H](NC(=O)[C@H](CCCN)NC(=O)[C@H](Cc1c[nH]cn1)NC(=O)[C@H](Cc1c(F)c(F)c(F)c(F)c1F)NC(=O)[C@H](CCCCNC(=N)N)NC(=O)[C@H](C)NC(=O)[C@@H](NC(=O)[C@H](Cc1ccc(Cl)cc1)NC(=O)[C@@H](NC(=O)[C@H](C)NC(=O)[C@H](CC(=O)O)NC(=O)[C@@H](CCCNC(=N)N)NC(=O)[C@H](Cc1ccc(O)cc1)NC(=O)CCCCCCCCCCCNC(=O)Cc1c(F)c(F)c(F)c(F)c1F)[C@@H](C)CC)[C@@H](C)O)C(C)C)[C@@H](C)CC)C(=O)N[C@H](CCCNC(=N)N)C(=O)N[C@@H](CCCCNC(=N)N)C(=O)NC [AVR-542, 5FPhAC-Ada-Tyr-DArg-Asp-Ala-Ile-Cpa-Thr-Ala-Har-5FPhe-His-Orn-Val-Leu-Abu-Gln-Leu-Ser-Ala-His-Orn-Leu-Leu-Gln-Asp-Ile-Nle-DArg-Har-NHCH3] ({Phenylacetyl(2,3,4,5,6-F5)-12Ado}-Y[dR]DAI[Phe(4-Cl)]TA[hArg][Phe(F5)]H[Orn]VL[Abu]QLSAH[Orn]LLQDI[Nle][dR][hArg]-NHMe)
relative inhibitory potency in comparison to MIA-602, Lung IICC827 [3]: 2.649 | relative inhibitory potency in comparison to MIA-602, Pancreatic CFPAC-1 [4]: 1.312
